For one experiment, the target named is Human FXIIa (Homo sapiens (Human), UniProt P00748). Kind of experiment: Factor XIIa (FXIIa) inhibitory activity, chromogenic substrate (Pefachrome XIIa) cleavage. The experiment is classed as biochemical. The note with it: 10 min pre-incubation, Pefachrome XIIa 400 μM.
Another experiment addresses Human alpha-thrombin (Homo sapiens (Human), UniProt P00734). The experiment can be described thus: Thrombin counterscreen for selectivity, fluorogenic substrate cleavage. The experiment is classed as biochemical. The note with it: 10 min pre-incubation, Boc-Val-Pro-Arg-AMC 20 μM. How it is done: Counterscreens for Selectivity:
Thrombin. In a 96-well white opaque plate, 80 μl of assay buffer was added to each well. Test compounds were added, and serially diluted as above, to generate a concentration range of approximately 1-100 μM. Human alpha-thrombin (Enzyme Research Labs) was diluted in assay buffer to a final concentration of 12.5 nM. 80 μl of this enzyme solution was added to the assay wells. The enzyme/compound mixtures were incubated for 10 minutes at room temperature. Fluorogenic substrate (Boc-Val-Pro-Arg-7-amido-4-methylcoumarin; Sigma) was added to assay wells at a final concentration of 20 μM. The assay plate was spun for 1 minute at 1500 g and then read at 37° C. in a SpectraMax M2 plate reader (λex=380 nm and λem=460 nm). Activity was quantified as the rate of change in fluorescence, which corresponds to the rate of substrate cleavage. IC50 values were determined as the concentration of inhibitor that produced 50% of the rate of change of control wells without any inhibitor. For compounds with activity <1 μM, the assay was repeated with a lower concentration range, typically from 10-1000 nM.

Among the data in patent US11312723B2, “Pyranopyrazole and pyrazolopyridine immunomodulators for treatment of autoimmune diseases” (The Rockefeller University, priority 2017, dated 2022) are IC50 values, retold here.

Usually IC50 stands for the midpoint of a concentration-inhibition curve. A high value points to weaker potency in that assay.

Chain of Human FXIIa (P00748 373-615): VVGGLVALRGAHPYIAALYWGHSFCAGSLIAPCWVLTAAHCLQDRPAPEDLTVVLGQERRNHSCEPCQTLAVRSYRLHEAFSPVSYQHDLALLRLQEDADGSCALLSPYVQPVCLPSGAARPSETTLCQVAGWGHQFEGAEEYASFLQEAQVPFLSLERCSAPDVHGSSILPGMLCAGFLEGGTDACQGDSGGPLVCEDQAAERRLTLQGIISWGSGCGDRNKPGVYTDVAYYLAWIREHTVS
Chain of Human FXIIa (P00748 20-372 partner): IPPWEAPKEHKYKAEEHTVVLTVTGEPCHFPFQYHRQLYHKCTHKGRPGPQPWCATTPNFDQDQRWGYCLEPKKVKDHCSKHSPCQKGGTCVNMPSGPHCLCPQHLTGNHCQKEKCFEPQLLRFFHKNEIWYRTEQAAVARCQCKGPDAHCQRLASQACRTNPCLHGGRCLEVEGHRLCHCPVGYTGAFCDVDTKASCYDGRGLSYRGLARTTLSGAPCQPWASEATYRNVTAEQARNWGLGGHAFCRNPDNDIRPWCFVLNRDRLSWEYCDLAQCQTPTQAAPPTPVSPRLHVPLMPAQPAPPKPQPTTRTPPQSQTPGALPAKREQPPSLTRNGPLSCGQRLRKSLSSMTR

Consider `COc1cccc2c1NCCC2C(=O)n1nc2c(c1N)CCN(S(C)(=O)=O)C2` (stereo not drawn) [Example 61, (3-amino-6-(methylsulfonyl)-4,5,6,7-tetrahydropyrazolo[3,4-c]pyridin-2-yl)(8-methoxy-1,2,3,4-tetrahydroquinolin-4-yl)methanone], for which the IC50 against Human FXIIa was determined as 0.1 µM; at Human alpha-thrombin it was 20 µM.
For `CS(=O)(=O)N1CCc2c(nn(C(=O)C3CCNc4c3cccc4C(F)(F)F)c2N)C1` (stereo not drawn) [Example 67, (3-amino-6-(methylsulfonyl)-4,5,6,7-tetrahydropyrazolo[3,4-c]pyridin-2-yl)(8-(trifluoromethyl)-1,2,3,4-tetrahydroquinolin-4-yl)methanone] the same measures were 0.15 µM and above 70 µM.
On the same counts, the results for `Nc1c2c(nn1C(=O)C1CCNc3ccc(F)cc31)CCOC2` (stereo not drawn) [Example 74, (3-amino-6,7-dihydropyrano[4,3-c]pyrazol-2(4H)-yl)(6-fluoro-1,2,3,4-tetrahydroquinolin-4-yl)methanone] are 0.08 µM and 50 µM.
For `Cc1cc2c(C(=O)n3nc4c(c3N)CN(C)CC4)cccc2[nH]1` [Example 85, (3-amino-5-methyl-4,5,6,7-tetrahydro-pyrazolo[4,3-c]pyridin-2-yl)(2-methyl-1H-indol-4-yl)methanone] the same measures were 0.03 µM and 60 µM.
As for `COC(=O)N1CCc2nn(C(=O)C3CCNc4ccccc43)c(N)c2C1` (stereo not drawn) [Example 87, methyl 3-amino-2-(1,2,3,4-tetrahydro-quinoline-4-carbonyl)-6,7-dihydro-2H-pyrazolo[4,3-c]pyridine-5(4H)-carboxylate], the IC50 against Human FXIIa is 0.8 µM; on Human alpha-thrombin, above 100 µM.
For `CNC(=O)N1CCc2nn(C(=O)C3CCNc4ccccc43)c(N)c2C1` (stereo not drawn) [Example 89, 3-amino-N-methyl-2-(1,2,3,4-tetrahydro-quinoline-4-carbonyl)-6,7-dihydro-2H-pyrazolo[4,3-c]pyridine-5(4H)-carboxamide], the IC50 is 0.8 µM on Human FXIIa and above 80 µM on Human alpha-thrombin.
Regarding `CNC(=O)N1CCc2c(c(N)nn2C(=O)C2CCNc3ccccc32)C1` (stereo not drawn) [Example 90, 3-amino-N-methyl-1-(1,2,3,4-tetrahydro-quinoline-4-carbonyl)-6,7-dihydro-1H-pyrazolo[4,3-c]pyridine-5(4H)-carboxamide], the IC50 against Human FXIIa amounted to 1.5 µM; against Human alpha-thrombin, 12 µM.
As for `CS(=O)(=O)N1CCc2nn(C(=O)C3CCNc4ccccc43)c(N)c2C1` (stereo not drawn) [Example 91, (3-amino-5-(methylsulfonyl)-4,5,6,7-tetrahydro-pyrazolo[4,3-c]pyridin-2-yl)(1,2,3,4-tetrahydro-quinolin-4-yl)methanone], the half-inhibitory concentration (IC50) against Human FXIIa is 1.5 µM; against Human alpha-thrombin, above 70 µM.
For `CCN1CCc2nn(C(=O)C3CCNc4ccccc43)c(N)c2C1` (stereo not drawn) [Example 93, (3-amino-5-ethyl-4,5,6,7-tetrahydro-pyrazolo[4,3-c]pyridin-2-yl)(1,2,3,4-tetrahydro-quinolin-4-yl)methanone] the same measures were 1.3 µM and above 100 µM.
For the molecule `CCN1CCc2c(c(N)nn2C(=O)C2CCNc3ccccc32)C1` (stereo not drawn) [Example 94, (3-amino-5-ethyl-4,5,6,7-tetrahydro-pyrazolo[4,3-c]pyridin-1-yl)(1,2,3,4-tetrahydro-quinolin-4-yl)methanone], the IC50 against Human FXIIa was above 50 µM; on Human alpha-thrombin it was above 80 µM.
For the molecule `CC(=O)N1CCc2nn(C(=O)C3CCNc4ccccc43)c(N)c2C1` (stereo not drawn) [Example 95, 1-(3-amino-2-(1,2,3,4-tetrahydro-quinoline-4-carbonyl)-6,7-dihydro-2H-pyrazolo[4,3-c]pyridin-5(4H)-yl)ethanone], the 50% inhibitory concentration (IC50) on Human FXIIa was 0.7 µM; on Human alpha-thrombin, above 50 µM.
On the same counts, the results for `CN1CCc2nn(C(=O)C3CCCc4[nH]ccc43)c(N)c2C1` (stereo not drawn) [Example 97, (3-amino-5-methyl-4,5,6,7-tetrahydro-pyrazolo[4,3-c]pyridin-2-yl)(4,5,6,7-tetrahydro-1H-indol-4-yl)methanone] are 8.5 µM and above 80 µM.
In the case of `CN1CCc2c(c(N)nn2C(=O)C2CCCc3[nH]ccc32)C1` (stereo not drawn) [Example 98, (3-amino-5-methyl-4,5,6,7-tetrahydro-pyrazolo[4,3-c]pyridin-1-yl)(4,5,6,7-tetrahydro-1H-indol-4-yl)methanone], the 50% inhibitory concentration (IC50) at Human FXIIa stood at 20 µM; at Human alpha-thrombin, 70 µM.
Take `CC(=O)N1CCc2c(nn(C(=O)c3cccc4[nH]c(C)cc34)c2N)C1` [Example 99, 1-(3-amino-2-(2-methyl-1H-indole-4-carbonyl)-4,5-dihydro-2H-pyrazolo[3,4-c]pyridin-6(7H)-yl)ethanone]: the IC50 was 0.04 µM on Human FXIIa and above 50 µM at Human alpha-thrombin.
For `Cc1cc2c(C(=O)n3nc4c(c3N)CCN(S(C)(=O)=O)C4)cccc2[nH]1` [Example 101, (3-amino-6-(methylsulfonyl)-4,5,6,7-tetrahydro-pyrazolo[3,4-c]pyridin-2-yl)(2-methyl-1H-indol-4-yl)methanone], the results for the half-maximal inhibitory concentration (IC50) at Human FXIIa and against Human alpha-thrombin were 0.02 µM and 10 µM, respectively.
For `CS(=O)(=O)N1CCc2c(nn(C(=O)C3CCNc4ccccc43)c2N)C1` (stereo not drawn) [Example 103, (3-amino-6-(methylsulfonyl)-4,5,6,7-tetrahydro-pyrazolo[3,4-c]pyridin-2-yl)(1,2,3,4-tetrahydro-quinolin-4-yl)methanone] the same measures were 0.35 µM and 30 µM.
On the same counts, the results for `CS(=O)(=O)N1CCc2c(N)nn(C(=O)C3CCNc4ccccc43)c2C1` (stereo not drawn) [Example 104, (3-amino-6-(methylsulfonyl)-4,5,6,7-tetrahydro-pyrazolo[3,4-c]pyridin-1-yl)(1,2,3,4-tetrahydro-quinolin-4-yl)methanone] are 80 µM and above 85 µM.
On the same counts, the results for `Nc1c2c(nn1C(=O)C1CCNc3ccccc31)CN(S(=O)(=O)c1ccccc1)CC2` (stereo not drawn) [Example 105, (3-amino-6-(phenylsulfonyl)-4,5,6,7-tetrahydro-pyrazolo[3,4-c]pyridin-2-yl)(1,2,3,4-tetrahydro-quinolin-4-yl)methanone] are 1 µM and above 100 µM.
As for `Nc1nn(C(=O)C2CCNc3ccccc32)c2c1CCN(S(=O)(=O)c1ccccc1)C2` (stereo not drawn) [Example 106, (3-amino-6-(phenylsulfonyl)-4,5,6,7-tetrahydro-pyrazolo[3,4-c]pyridin-1-yl)(1,2,3,4-tetrahydro-quinolin-4-yl)methanone], the IC50 on Human FXIIa is 50 µM; against Human alpha-thrombin, 70 µM.
For `CC(=O)N1CCc2c(nn(C(=O)C3CCNc4ccccc43)c2N)C1` (stereo not drawn) [Example 107, 1-(3-amino-2-(1,2,3,4-tetrahydro-quinoline-4-carbonyl)-4,5-dihydro-2H-pyrazolo[3,4-c]pyridin-6(7H)-yl)ethanone], the concentration for half-maximal inhibition (IC50) against Human FXIIa was 1.8 µM; against Human alpha-thrombin, above 40 µM.
On the same counts, the results for `CC(=O)N1CCc2c(N)nn(C(=O)C3CCNc4ccccc43)c2C1` (stereo not drawn) [Example 108, 1-(3-amino-1-(1,2,3,4-tetrahydro-quinoline-4-carbonyl)-4,5-dihydro-1H-pyrazolo[3,4-c]pyridin-6(7H)-yl)ethanone] are 80 µM and above 150 µM.
For `Nc1c2c(nn1C(=O)C1CCNc3ccccc31)CN(C(=O)c1ccccc1)CC2` (stereo not drawn) [Example 109, (3-amino-2-(1,2,3,4-tetrahydro-quinoline-4-carbonyl)-4,5-dihydro-2H-pyrazolo[3,4-c]pyridin-6(7H)-yl)(phenyl)-methanone] the same measures were 0.8 µM and above 75 µM.
On the same counts, the results for `Nc1nn(C(=O)C2CCNc3ccccc32)c2c1CCN(C(=O)c1ccccc1)C2` (stereo not drawn) [Example 110, (3-amino-1-(1,2,3,4-tetrahydro-quinoline-4-carbonyl)-4,5-dihydro-1H-pyrazolo[3,4-c]pyridin-6(7H)-yl)(phenyl)-methanone] are 60 µM and above 65 µM.
Consider `CNS(=O)(=O)N1CCc2c(nn(C(=O)C3CCNc4ccccc43)c2N)C1` (stereo not drawn) [Example 111, 3-amino-N-methyl-2-(1,2,3,4-tetrahydro-quinoline-4-carbonyl)-4,5-dihydro-2H-pyrazolo[3,4-c]pyridine-6(7H)-sulfonamide], for which the IC50 is 2 µM on Human FXIIa and above 50 µM on Human alpha-thrombin.
On the same counts, the results for `CNS(=O)(=O)N1CCc2c(N)nn(C(=O)C3CCNc4ccccc43)c2C1` (stereo not drawn) [Example 112, 3-amino-N-methyl-1-(1,2,3,4-tetrahydro-quinoline-4-carbonyl)-4,5-dihydro-1H-pyrazolo[3,4-c]pyridine-6(7H)-sulfonamide] are above 70 µM and above 70 µM.
With `CNC(=O)N1CCc2c(N)nn(C(=O)C3CCNc4ccccc43)c2C1` (stereo not drawn) [Example 113, 3-amino-N-methyl-1-(1,2,3,4-tetrahydro-quinoline-4-carbonyl)-4,5-dihydro-1H-pyrazolo[3,4-c]pyridine-6(7H)-carboxamide], the IC50 at Human FXIIa was 95 µM; on Human alpha-thrombin, above 100 µM.
On to `COC(=O)N1CCc2c(nn(C(=O)C3CCNc4ccccc43)c2N)C1` (stereo not drawn) [Example 114, methyl 3-amino-2-(1,2,3,4-tetrahydro-quinoline-4-carbonyl)-4,5-dihydro-2H-pyrazolo[3,4-c]pyridine-6(7H)-carboxylate], for which the IC50 was 0.45 µM against Human FXIIa and above 80 µM on Human alpha-thrombin.
